# Reference: patent EP0745599A2, “1-(3-Heterocyclylphenyl)-s-triazine-2,4,6-oxo or thiotrione herbicidal agents” (American Cyanamid Company, priority 1995, dated 1996)
# What was measured:
# Format in all cases: in vivo
# Settings in all cases: rated four to five weeks after treatment
# [1] = tested on: AMBROSIA ARTEMISIIFOLIA, L.; experiment: Preemergence herbicidal evaluation, AMBEL (Ragweed, Common); design: key to AMBEL: visual rating scale 0-9 vs control
# Source text: (§1) Results of herbicide evaluation are expressed on a rating scale (0-9). The scale is based upon a visual observation of plant stand, vigor, malformation, size, chlorosis and overall plant appearance as compared with a control.
# (§2) The preemergence herbicidal activity of the test compounds of the present invention is exemplified by the following tests in which the seeds of a variety of monocotyledonous and dicotyledonous plants are separately mixed with potting soil and planted on top of approximately one inch of soil in separate pint cups. After planting, the cups are sprayed with the selected aqueous acetone solution containing test compound in sufficient quantity to provide the equivalent of about 0.125 to 0.50 kg per hectare of test compound per cup. The treated cups are then placed on greenhouse benches, watered and cared for in accordance with conventional greenhouse procedures. From four to five weeks after treatment, the tests are terminated and each cup is examined and rated according to the rating system provided in Example 42.
# [2] = tested on: TRITICUM AESTIVUM, CV. APOLLO; experiment: Preemergence herbicidal evaluation, TRZAWO (Wheat, Winter, CV. APOLLO); design: key to TRZAWO: visual rating scale 0-9 vs control
# Source text: as §1, §2
# [3] = tested on: CASSIA OBTUSIFOLIA, L.; experiment: Preemergence herbicidal evaluation, CASOB (Sicklepod); design: key to CASOB: visual rating scale 0-9 vs control
# Source text: as §1, §2
# [4] = tested on: CHENOPODIUM ALBUM, L.; experiment: Preemergence herbicidal evaluation, CHEAL (Lambsquarters, Common); design: key to CHEAL: visual rating scale 0-9 vs control
# Source text: as §1, §2
# [5] = tested on: ABUTILON THEOPHRASTI, MEDIC.; experiment: Preemergence herbicidal evaluation, ABUTH (Velvetleaf); design: key to ABUTH: visual rating scale 0-9 vs control
# Source text: as §1, §2
# [6] = tested on: ECHINOCHLOA CRUS-GALLI, (L) BEAU; experiment: Postemergence herbicidal evaluation, ECHCG (Barnyardgrass)
# Description: (§3) In the tests, seedling plants are grown in jiffy flats for about two weeks. The test compounds are dispersed in 50/50 acetone/water mixtures containing 0.5% TWEEN®20, a polyoxyethylene sorbitan monolaurate surfactant of Atlas Chemical Industries, in sufficient quantities to provide the equivalent of about 0.125 kg to 0.500 kg per hectare of active compound when applied to the plants through a spray nozzle operating at 40 psi for a predetermined time. After spraying, the plants are placed on greenhouse benches and are cared for in the usual manner, commensurate with conventional greenhouse practices. From four to five weeks after treatment, the seedling plants are examined and rated according to the rating system set forth below. Where more than one test is involved for a given compound, the data are averaged.
# as §1
# [7] = tested on: GLYCINE MAX(L)MERR. CV. WILLIAMS; experiment: Preemergence herbicidal evaluation, GLXMAW (Soybean, Williams); design: key to GLXMAW: visual rating scale 0-9 vs control
# Source text: as §1, §2
# [8] = tested on: SETARIA VIRIDIS, (L) BEAU; experiment: Postemergence herbicidal evaluation, SETVI (Foxtail, Green)
# Description: as §3, §1
# [9] = tested on: GALIUM APARINE; experiment: Preemergence herbicidal evaluation, GALAP (Galium); design: key to GALAP: visual rating scale 0-9 vs control
# Source text: as §1, §2
# [10] = tested on: SETARIA VIRIDIS, (L) BEAU; experiment: Preemergence herbicidal evaluation, SETVI (Foxtail, Green); design: key to SETVI: visual rating scale 0-9 vs control
# Source text: as §1, §2
# [11] = tested on: ECHINOCHLOA CRUS-GALLI, (L) BEAU; experiment: Preemergence herbicidal evaluation, ECHCG (Barnyardgrass); design: key to ECHCG: visual rating scale 0-9 vs control
# Source text: as §1, §2
# [12] = tested on: ZEA MAYS L.; experiment: Preemergence herbicidal evaluation, ZEAMX (Corn, Field); design: key to ZEAMX: visual rating scale 0-9 vs control
# Source text: as §1, §2
# [13] = tested on: IPOMOEA SPP.; experiment: Preemergence herbicidal evaluation, IPOSS (Morningglory Spp.); design: key to IPOSS: visual rating scale 0-9 vs control
# Source text: as §1, §2
# [14] = tested on: ORYZA SATIVA, L. TEBONNET; experiment: Preemergence herbicidal evaluation, ORYSAT (Rice, Tebonnet); design: key to ORYSAT: visual rating scale 0-9 vs control
# Source text: as §1, §2
# [15] = tested on: CASSIA OBTUSIFOLIA, L.; experiment: Postemergence herbicidal evaluation, CASOB (Sicklepod)
# Description: as §3, §1
# [16] = tested on: ABUTILON THEOPHRASTI, MEDIC.; experiment: Postemergence herbicidal evaluation, ABUTH (Velvetleaf)
# Description: as §3, §1
# [17] = tested on: TRITICUM AESTIVUM, CV. APOLLO; experiment: Postemergence herbicidal evaluation, TRZAWO (Wheat, Winter, CV. APOLLO)
# Description: as §3, §1
smiles,measurement,setting,value
"CCOC(=O)Cn1c(=O)[nH]c(=O)n(-c2ccc(F)c(N3C(=O)C4=C(CCCC4)C3=O)c2)c1=O [Compound 9, Ethyl 3-[3-(1-cyclohexene-1,2-dicarbox-imido)-4-fluorophenyl]tetrahydro-2,4,6-trioxo-s-triazine-1(2H)-acetate]",Herbicide rating (0-9) AMBEL,[1]; 0.125 kg/ha,0.0
same,Herbicide rating (0-9) AMBEL,[1]; 0.250 kg/ha,0.0
same,Herbicide rating (0-9) AMBEL,[1]; 0.500 kg/ha,0.0
same,Herbicide rating (0-9) TRZAWO,[2]; 0.125 kg/ha,0.0
same,Herbicide rating (0-9) TRZAWO,[2]; 0.250 kg/ha,0.0
same,Herbicide rating (0-9) TRZAWO,[2]; 0.500 kg/ha,0.0
same,Herbicide rating (0-9) CASOB,[3]; 0.125 kg/ha,0.0
same,Herbicide rating (0-9) CASOB,[3]; 0.250 kg/ha,0.0
same,Herbicide rating (0-9) CASOB,[3]; 0.500 kg/ha,0.0
same,Herbicide rating (0-9) CHEAL,[4]; 0.125 kg/ha,0.0
same,Herbicide rating (0-9) CHEAL,[4]; 0.250 kg/ha,0.0
same,Herbicide rating (0-9) CHEAL,[4]; 0.500 kg/ha,0.0
same,Herbicide rating (0-9) ABUTH,[5]; 0.125 kg/ha,0.0
same,Herbicide rating (0-9) ABUTH,[5]; 0.250 kg/ha,0.0
same,Herbicide rating (0-9) ABUTH,[5]; 0.500 kg/ha,0.0
same,Herbicide rating (0-9) ECHCG,[6]; 0.125 kg/ha,0.0
same,Herbicide rating (0-9) ECHCG,[6]; 0.250 kg/ha,0.0
same,Herbicide rating (0-9) ECHCG,[6]; 0.500 kg/ha,0.0
same,Herbicide rating (0-9) GLXMAW,[7]; 0.125 kg/ha,0.0
same,Herbicide rating (0-9) GLXMAW,[7]; 0.250 kg/ha,0.0
same,Herbicide rating (0-9) GLXMAW,[7]; 0.500 kg/ha,0.0
same,Herbicide rating (0-9) SETVI,[8]; 0.125 kg/ha,0.0
same,Herbicide rating (0-9) SETVI,[8]; 0.250 kg/ha,0.0
same,Herbicide rating (0-9) SETVI,[8]; 0.500 kg/ha,0.0
same,Herbicide rating (0-9) GALAP,[9]; 0.125 kg/ha,0.0
same,Herbicide rating (0-9) GALAP,[9]; 0.250 kg/ha,0.0
same,Herbicide rating (0-9) GALAP,[9]; 0.500 kg/ha,0.0
same,Herbicide rating (0-9) SETVI,[10]; 0.125 kg/ha,0.0
same,Herbicide rating (0-9) SETVI,[10]; 0.250 kg/ha,0.0
same,Herbicide rating (0-9) SETVI,[10]; 0.500 kg/ha,0.0
same,Herbicide rating (0-9) ECHCG,[11]; 0.125 kg/ha,0.0
same,Herbicide rating (0-9) ECHCG,[11]; 0.250 kg/ha,0.0
same,Herbicide rating (0-9) ECHCG,[11]; 0.500 kg/ha,0.0
same,Herbicide rating (0-9) ZEAMX,[12]; 0.125 kg/ha,0.0
same,Herbicide rating (0-9) ZEAMX,[12]; 0.250 kg/ha,0.0
same,Herbicide rating (0-9) ZEAMX,[12]; 0.500 kg/ha,0.0
same,Herbicide rating (0-9) IPOSS,[13]; 0.125 kg/ha,0.0
same,Herbicide rating (0-9) IPOSS,[13]; 0.250 kg/ha,0.0
same,Herbicide rating (0-9) IPOSS,[13]; 0.500 kg/ha,0.0
same,Herbicide rating (0-9) ORYSAT,[14]; 0.125 kg/ha,0.0
same,Herbicide rating (0-9) ORYSAT,[14]; 0.250 kg/ha,0.0
same,Herbicide rating (0-9) ORYSAT,[14]; 0.500 kg/ha,0.0
same,Herbicide rating (0-9) CASOB,[15]; 0.125 kg/ha,0.0
same,Herbicide rating (0-9) CASOB,[15]; 0.250 kg/ha,0.0
same,Herbicide rating (0-9) CASOB,[15]; 0.500 kg/ha,0.0
"CC(C)OC(=O)Cn1c(=O)n(C)c(=O)n(-c2cc(N=c3sc(=O)n4n3CCCC4)c(F)cc2Cl)c1=O [Compound 13, Isopropyl 3-{2-chloro-4-fluoro-5-[(tetra-hydro-3-oxo-1H,3H-[1,3,4]thiadiazolo[3,4-a]pyridazin-1-ylidene)amino]phenyl}tetra-hydro-5-methyl-2,4,6-trioxo-s-triazine-1(2H)-acetate]",AMBEL,[1]; Rate 0.125 kg/ha,0.0
same,AMBEL,[1]; Rate 0.250 kg/ha,3.0
same,AMBEL,[1]; Rate 0.500 kg/ha,8.0
same,TRZAWO,[2]; Rate 0.125 kg/ha,0.0
same,TRZAWO,[2]; Rate 0.250 kg/ha,0.0
same,TRZAWO,[2]; Rate 0.500 kg/ha,1.0
same,CASOB,[3]; Rate 0.125 kg/ha,5.0
same,CASOB,[3]; Rate 0.250 kg/ha,9.0
same,CASOB,[3]; Rate 0.500 kg/ha,9.0
same,Herbicide rating (0-9) ABUTH,[16]; 0.125 kg/ha,9.0
same,Herbicide rating (0-9) ABUTH,[16]; 0.250 kg/ha,9.0
same,Herbicide rating (0-9) ABUTH,[16]; 0.500 kg/ha,9.0
same,CHEAL,[4]; Rate 0.125 kg/ha,9.0
same,CHEAL,[4]; Rate 0.250 kg/ha,9.0
same,CHEAL,[4]; Rate 0.500 kg/ha,9.0
same,ABUTH,[5]; Rate 0.125 kg/ha,9.0
same,ABUTH,[5]; Rate 0.250 kg/ha,9.0
same,ABUTH,[5]; Rate 0.500 kg/ha,9.0
same,Herbicide rating (0-9) ECHCG,[6]; 0.125 kg/ha,0.0
same,Herbicide rating (0-9) ECHCG,[6]; 0.250 kg/ha,0.0
same,Herbicide rating (0-9) ECHCG,[6]; 0.500 kg/ha,0.0
same,GLXMAW,[7]; Rate 0.125 kg/ha,0.0
same,GLXMAW,[7]; Rate 0.250 kg/ha,0.0
same,GLXMAW,[7]; Rate 0.500 kg/ha,0.0
same,Herbicide rating (0-9) SETVI,[8]; 0.125 kg/ha,1.0
same,Herbicide rating (0-9) SETVI,[8]; 0.250 kg/ha,1.0
same,Herbicide rating (0-9) SETVI,[8]; 0.500 kg/ha,1.0
same,GALAP,[9]; Rate 0.125 kg/ha,9.0
same,GALAP,[9]; Rate 0.250 kg/ha,8.0
same,GALAP,[9]; Rate 0.500 kg/ha,9.0
same,SETVI,[10]; Rate 0.125 kg/ha,0.0
same,SETVI,[10]; Rate 0.250 kg/ha,7.0
same,SETVI,[10]; Rate 0.500 kg/ha,7.0
same,ECHCG,[11]; Rate 0.125 kg/ha,0.0
same,ECHCG,[11]; Rate 0.250 kg/ha,0.0
same,ECHCG,[11]; Rate 0.500 kg/ha,0.0
same,ZEAMX,[12]; Rate 0.125 kg/ha,0.0
same,ZEAMX,[12]; Rate 0.250 kg/ha,0.0
same,ZEAMX,[12]; Rate 0.500 kg/ha,1.0
same,IPOSS,[13]; Rate 0.125 kg/ha,2.0
same,IPOSS,[13]; Rate 0.250 kg/ha,5.0
same,IPOSS,[13]; Rate 0.500 kg/ha,6.0
same,ORYSAT,[14]; Rate 0.125 kg/ha,0.0
same,ORYSAT,[14]; Rate 0.250 kg/ha,1.0
same,ORYSAT,[14]; Rate 0.500 kg/ha,2.0
same,Herbicide rating (0-9) TRZAWO,[17]; 0.125 kg/ha,3.5
same,Herbicide rating (0-9) TRZAWO,[17]; 0.250 kg/ha,3.5
same,Herbicide rating (0-9) TRZAWO,[17]; 0.500 kg/ha,3.5
